This note sets out measurements from ChEMBL document CHEMBL4334471, “Discovery of 1,8-disubstituted-[1,2,3]triazolo[4,5-c]quinoline derivatives as a new class of Hippo signaling pathway inhibitors” (Bioorg Med Chem Lett, 2019).

For experiment [1], the target named is Vascular endothelial growth factor receptor 1 (Homo sapiens) (UniProt P17948). Nature of the experiment: Inhibition of recombinant human FLT1 (783 to end residues) assessed as residual activity at 10 uM using KKKSPGEYVNIEF as substrate at 40 mins in presence of [gamma-33ATP] by scintillation counting based radiometry assay relative to control.
Experiment [2] concerns the target Serine/threonine-protein kinase WNK1 (Homo sapiens) (UniProt Q9H4A3). Nature of the experiment: Inhibition of recombinant human WNK1 (1 to 491 residues) assessed as residual activity at 10 uM using myelin basic protein as substrate incubated for 40 mins in presence of [gamma33P]ATP by scintillation counting based radiometry assay relative to control.
Experiment [3] concerns the target Proto-oncogene tyrosine-protein kinase Src (Homo sapiens) (UniProt P12931). Briefly: Inhibition of recombinant human SRC (1 to 530 residues) assessed as residual activity at 10 uM using GGEEEEYFELVKK as substrate incubated for 40 mins in presence of [gamma33P]ATP by scintillation counting based radiometry assay relative to control.
In experiment [4] the target is SRSF protein kinase 2 (Homo sapiens) (UniProt P78362). Briefly: Inhibition of recombinant human SRPK2 (46 to end residues) assessed as residual activity at 10 uM using RSRSRSRSRSRSRSR as substrate incubated for 40 mins in presence of [gamma33P]ATP by scintillation counting based radiometry assay relative to control.
Experiment [5] concerns the target Casein kinase I isoform delta (Homo sapiens) (UniProt P48730). Briefly: Inhibition of recombinant human CK1delta (1 to 294 residues) assessed as residual activity at 10 uM using KRRRALS(p)VASLPGL as substrate incubated for 40 mins in presence of [gamma-33ATP] by scintillation counting based radiometry assay relative to control.
Experiment [6] relates to Hepatocyte growth factor receptor (Homo sapiens), P08581 [D1228H]. Briefly: Inhibition of recombinant human MET A1209G/V1290L/D1246H mutant (974 to end residues) assessed as residual activity at 10 uM using KKKGQEEEYVFIE as substrate incubated for 40 mins in presence of [gamma-33ATP by scintillation counting based radiometry assay relative to control.
The target of experiment [7] is cGMP-dependent protein kinase 2 (Homo sapiens) (UniProt Q13237). Nature of the experiment: Inhibition of recombinant full-length human PRKG2 assessed as residual activity at 10 uM using KKLRRTLSFAEPG as substrate incubated for 40 mins in presence of [gamma33P]ATP by scintillation counting based radiometry assay relative to control.
Experiment [8] addresses Testis-specific serine/threonine-protein kinase 4 (Homo sapiens) (UniProt Q6SA08). Briefly: Inhibition of recombinant full-length human TSSK4 assessed as residual activity at 10 uM using KKLNRTLSFAEPG as substrate incubated for 40 mins in presence of [gamma33P]ATP by scintillation counting based radiometry assay relative to control.
Experiment [9] concerns Platelet-derived growth factor receptor alpha (Homo sapiens), P16234 [D842V]. Nature of the experiment: Inhibition of human PDGFRalpha D842V mutant (550 to end residues) assessed as residual activity at 10 uM using poly(Glu, Tyr) 4:1 as substrate measured after 40 mins in presence of [gamma33P]ATP by scintillation counting based radiometry assay relative to control.
For experiment [10], the target named is Aurora kinase C (Homo sapiens) (UniProt Q9UQB9). Briefly: Inhibition of recombinant human Aurora C (35 to end residues) assessed as residual activity at 10 uM using AKRRRLSSLRA as substrate incubated for 40 mins in presence of [gamma-33ATP] by scintillation counting based radiometry assay relative to control.
For experiment [11], the target named is MAP/microtubule affinity-regulating kinase 4 (Homo sapiens) (UniProt Q96L34). Briefly: Inhibition of recombinant full length human MARK4 assessed as residual activity at 10 uM using KKKVSRSGLYRSPSMPENLNRPR as substrate incubated for 40 mins in presence of [gamma-33ATP by scintillation counting based radiometry assay relative to control.
For experiment [12], the target named is Leucine-rich repeat serine/threonine-protein kinase 2 (Homo sapiens) (UniProt Q5S007). Briefly: Inhibition of recombinant human LRRK2 (970 to end residues) assessed as residual activity at 10 uM using RLGRDKYKTLRQI as substrate after 40 mins in presence of [gamma-33ATP] by scintillation counting based radiometry assay relative to control.
Experiment [13] deals with Serine/threonine-protein kinase pim-1 (Homo sapiens) (UniProt P11309). Briefly: Inhibition of recombinant full length human Pim1 assessed as residual activity at 10 uM using KKRNRTLTV as substrate incubated for 40 mins in presence of [gamma33P]ATP by scintillation counting based radiometry assay relative to control.
For experiment [14], the target named is Calcium/calmodulin-dependent protein kinase type 1D (Homo sapiens) (UniProt Q8IU85). Nature of the experiment: Inhibition of recombinant full length human CaMK1delta assessed as residual activity at 10 uM using […] incubated for 40 mins in presence of [gamma-33ATP] by scintillation counting based radiometry assay relative to control.
The target in experiment [15] is Mitogen-activated protein kinase 1 (Homo sapiens) (UniProt P28482). Briefly: Inhibition of recombinant full length human MAPK1 assessed as residual activity at 10 uM using myelin basic protein as substrate incubated for 40 mins in presence of [gamma-33ATP by scintillation counting based radiometry assay relative to control.
Experiment [16] concerns the target Myotonin-protein kinase (Homo sapiens) (UniProt Q09013). Briefly: Inhibition of recombinant human DMPK (1 to 549 residues) assessed as residual activity at 10 uM using KKSRGDYMTMQIG as substrate at 40 mins in presence of [gamma-33ATP] by scintillation counting based radiometry assay relative to control.
A further experiment deals with A549. Briefly: Upregulation of CYR61 in human A549 cells incubated for 24 hrs by qRT-PCR analysis. Type of experiment: functional, cell-based. Background: Real-time PCR tracks product formation cycle by cycle.
Experiment [17] addresses Serine/threonine-protein kinase Nek9 (Homo sapiens) (UniProt Q8TD19). Nature of the experiment: Inhibition of recombinant human NEK9 (1 to 324 residues) assessed as residual activity at 10 uM using myelin basic protein as substrate measured after 40 mins in presence of [gamma33P]ATP by scintillation counting based radiometry assay relative to control.
Another experiment is filed under the species Mus musculus. Briefly: Inhibition of recombinant full length mouse PI3K p110/p85 assessed as residual activity at 10 uM using phosphatidylinositol-4, 5-bisphosphate as substrate incubated for 40 mins in presence of [gamma33P]ATP by scintillation counting based radiometry assay relative to control.
For experiment [18], the target named is Dual specificity tyrosine-phosphorylation-regulated kinase 2 (Homo sapiens) (UniProt Q92630). Nature of the experiment: Inhibition of recombinant human DYRK2 assessed as residual activity at 10 uM using casein as substrate at 40 mins in presence of [gamma-33ATP] by scintillation counting based radiometry assay relative to control.
Experiment [19] relates to Dual specificity protein kinase TTK (Homo sapiens), P33981 [S389A]. Briefly: Inhibition of recombinant full-length human TTK S389A mutant assessed as residual activity at 10 uM using MBP as substrate incubated for 40 mins in presence of [gamma33P]ATP by scintillation counting based radiometry assay relative to control.
Dual specificity protein kinase TTK (Homo sapiens), P33981 [S389A], sequence (P33981 whole entry S389A): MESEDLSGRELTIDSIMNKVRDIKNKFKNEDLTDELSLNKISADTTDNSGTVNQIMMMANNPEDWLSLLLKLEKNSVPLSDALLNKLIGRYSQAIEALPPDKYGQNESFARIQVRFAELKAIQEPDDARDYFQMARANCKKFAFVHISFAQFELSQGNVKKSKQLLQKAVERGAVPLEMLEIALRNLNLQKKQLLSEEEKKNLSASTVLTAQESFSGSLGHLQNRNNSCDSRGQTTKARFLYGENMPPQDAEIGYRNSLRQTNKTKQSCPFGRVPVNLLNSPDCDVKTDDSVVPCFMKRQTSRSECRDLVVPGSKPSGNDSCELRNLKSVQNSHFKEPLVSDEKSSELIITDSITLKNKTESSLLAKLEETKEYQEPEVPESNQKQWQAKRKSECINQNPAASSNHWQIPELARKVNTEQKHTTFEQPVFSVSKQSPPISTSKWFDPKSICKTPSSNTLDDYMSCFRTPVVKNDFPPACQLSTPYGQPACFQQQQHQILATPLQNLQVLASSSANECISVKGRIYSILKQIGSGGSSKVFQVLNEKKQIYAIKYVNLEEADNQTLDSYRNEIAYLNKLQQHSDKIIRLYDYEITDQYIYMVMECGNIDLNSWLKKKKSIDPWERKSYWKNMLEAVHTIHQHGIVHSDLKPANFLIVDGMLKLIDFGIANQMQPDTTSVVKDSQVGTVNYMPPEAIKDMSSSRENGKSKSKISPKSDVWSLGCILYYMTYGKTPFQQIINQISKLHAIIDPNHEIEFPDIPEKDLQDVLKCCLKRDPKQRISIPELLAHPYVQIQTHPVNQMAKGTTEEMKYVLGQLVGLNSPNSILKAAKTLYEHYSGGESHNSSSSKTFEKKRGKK

Serine/threonine-protein kinase pim-1 (Homo sapiens), sequence (P11309 whole entry, looked up): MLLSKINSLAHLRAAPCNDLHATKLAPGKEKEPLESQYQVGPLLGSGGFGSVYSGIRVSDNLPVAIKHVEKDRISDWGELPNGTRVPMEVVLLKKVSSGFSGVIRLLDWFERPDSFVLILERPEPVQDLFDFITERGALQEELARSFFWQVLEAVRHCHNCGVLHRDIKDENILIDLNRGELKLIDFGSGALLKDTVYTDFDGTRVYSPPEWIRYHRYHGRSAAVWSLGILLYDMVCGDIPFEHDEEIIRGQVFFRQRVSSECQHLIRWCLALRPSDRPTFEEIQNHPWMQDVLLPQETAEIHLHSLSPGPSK
cGMP-dependent protein kinase 2 (Homo sapiens), sequence (Q13237 whole entry): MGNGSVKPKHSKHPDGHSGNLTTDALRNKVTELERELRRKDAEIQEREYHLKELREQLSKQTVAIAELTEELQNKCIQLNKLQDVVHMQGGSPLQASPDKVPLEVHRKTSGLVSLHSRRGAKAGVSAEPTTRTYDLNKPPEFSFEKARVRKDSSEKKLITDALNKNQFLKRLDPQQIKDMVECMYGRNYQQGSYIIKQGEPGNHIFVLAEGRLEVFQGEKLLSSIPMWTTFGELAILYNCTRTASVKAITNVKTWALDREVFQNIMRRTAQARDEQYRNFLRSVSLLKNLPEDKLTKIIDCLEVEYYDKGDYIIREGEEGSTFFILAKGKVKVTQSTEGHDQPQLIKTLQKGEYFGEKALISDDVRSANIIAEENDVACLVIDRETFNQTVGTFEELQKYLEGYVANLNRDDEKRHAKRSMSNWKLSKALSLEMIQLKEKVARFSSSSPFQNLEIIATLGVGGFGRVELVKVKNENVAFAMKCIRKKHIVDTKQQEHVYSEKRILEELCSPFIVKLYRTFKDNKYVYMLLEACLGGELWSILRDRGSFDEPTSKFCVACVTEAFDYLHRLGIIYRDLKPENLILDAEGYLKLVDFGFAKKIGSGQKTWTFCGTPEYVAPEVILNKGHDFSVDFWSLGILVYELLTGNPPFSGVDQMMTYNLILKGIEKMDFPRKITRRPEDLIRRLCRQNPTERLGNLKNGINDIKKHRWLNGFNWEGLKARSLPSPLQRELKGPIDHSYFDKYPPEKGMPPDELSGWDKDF
Aurora kinase C (Homo sapiens), sequence (Q9UQB9 whole entry): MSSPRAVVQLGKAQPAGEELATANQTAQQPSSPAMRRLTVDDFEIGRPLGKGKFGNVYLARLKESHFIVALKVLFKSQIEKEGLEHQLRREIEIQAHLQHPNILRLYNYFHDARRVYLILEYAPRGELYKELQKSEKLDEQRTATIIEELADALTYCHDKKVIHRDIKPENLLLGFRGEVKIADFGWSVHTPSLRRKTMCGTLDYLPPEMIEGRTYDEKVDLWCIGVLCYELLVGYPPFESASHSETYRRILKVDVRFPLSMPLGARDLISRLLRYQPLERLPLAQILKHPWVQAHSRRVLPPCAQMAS
Proto-oncogene tyrosine-protein kinase Src (Homo sapiens), sequence (P12931 2-536 limits assumed): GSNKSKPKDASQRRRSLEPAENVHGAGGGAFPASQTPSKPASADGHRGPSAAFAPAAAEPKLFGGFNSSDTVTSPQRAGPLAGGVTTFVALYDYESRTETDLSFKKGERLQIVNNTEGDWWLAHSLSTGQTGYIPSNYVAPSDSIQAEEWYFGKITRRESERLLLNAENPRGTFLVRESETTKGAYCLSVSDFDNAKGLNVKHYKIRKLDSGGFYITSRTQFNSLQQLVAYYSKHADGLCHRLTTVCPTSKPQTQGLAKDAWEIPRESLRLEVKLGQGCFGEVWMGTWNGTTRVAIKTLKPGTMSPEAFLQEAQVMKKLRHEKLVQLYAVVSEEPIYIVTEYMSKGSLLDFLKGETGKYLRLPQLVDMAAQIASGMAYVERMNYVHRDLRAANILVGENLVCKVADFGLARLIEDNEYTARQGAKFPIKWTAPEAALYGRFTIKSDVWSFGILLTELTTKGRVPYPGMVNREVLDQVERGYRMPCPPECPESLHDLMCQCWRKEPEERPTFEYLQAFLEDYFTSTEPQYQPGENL
Calcium/calmodulin-dependent protein kinase type 1D (Homo sapiens), sequence (Q8IU85 whole entry, looked up): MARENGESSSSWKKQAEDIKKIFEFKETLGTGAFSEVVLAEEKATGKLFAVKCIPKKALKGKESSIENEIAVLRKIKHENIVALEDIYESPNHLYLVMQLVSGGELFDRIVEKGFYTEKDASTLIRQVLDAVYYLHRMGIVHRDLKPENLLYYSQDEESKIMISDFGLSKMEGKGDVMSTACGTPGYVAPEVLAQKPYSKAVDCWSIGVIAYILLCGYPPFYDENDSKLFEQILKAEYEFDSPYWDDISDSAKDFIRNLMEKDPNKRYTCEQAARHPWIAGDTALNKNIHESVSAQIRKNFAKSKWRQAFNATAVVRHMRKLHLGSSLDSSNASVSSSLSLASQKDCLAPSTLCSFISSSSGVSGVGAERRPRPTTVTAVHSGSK
Platelet-derived growth factor receptor alpha (Homo sapiens), P16234 [D842V], sequence (P16234 whole entry D842V): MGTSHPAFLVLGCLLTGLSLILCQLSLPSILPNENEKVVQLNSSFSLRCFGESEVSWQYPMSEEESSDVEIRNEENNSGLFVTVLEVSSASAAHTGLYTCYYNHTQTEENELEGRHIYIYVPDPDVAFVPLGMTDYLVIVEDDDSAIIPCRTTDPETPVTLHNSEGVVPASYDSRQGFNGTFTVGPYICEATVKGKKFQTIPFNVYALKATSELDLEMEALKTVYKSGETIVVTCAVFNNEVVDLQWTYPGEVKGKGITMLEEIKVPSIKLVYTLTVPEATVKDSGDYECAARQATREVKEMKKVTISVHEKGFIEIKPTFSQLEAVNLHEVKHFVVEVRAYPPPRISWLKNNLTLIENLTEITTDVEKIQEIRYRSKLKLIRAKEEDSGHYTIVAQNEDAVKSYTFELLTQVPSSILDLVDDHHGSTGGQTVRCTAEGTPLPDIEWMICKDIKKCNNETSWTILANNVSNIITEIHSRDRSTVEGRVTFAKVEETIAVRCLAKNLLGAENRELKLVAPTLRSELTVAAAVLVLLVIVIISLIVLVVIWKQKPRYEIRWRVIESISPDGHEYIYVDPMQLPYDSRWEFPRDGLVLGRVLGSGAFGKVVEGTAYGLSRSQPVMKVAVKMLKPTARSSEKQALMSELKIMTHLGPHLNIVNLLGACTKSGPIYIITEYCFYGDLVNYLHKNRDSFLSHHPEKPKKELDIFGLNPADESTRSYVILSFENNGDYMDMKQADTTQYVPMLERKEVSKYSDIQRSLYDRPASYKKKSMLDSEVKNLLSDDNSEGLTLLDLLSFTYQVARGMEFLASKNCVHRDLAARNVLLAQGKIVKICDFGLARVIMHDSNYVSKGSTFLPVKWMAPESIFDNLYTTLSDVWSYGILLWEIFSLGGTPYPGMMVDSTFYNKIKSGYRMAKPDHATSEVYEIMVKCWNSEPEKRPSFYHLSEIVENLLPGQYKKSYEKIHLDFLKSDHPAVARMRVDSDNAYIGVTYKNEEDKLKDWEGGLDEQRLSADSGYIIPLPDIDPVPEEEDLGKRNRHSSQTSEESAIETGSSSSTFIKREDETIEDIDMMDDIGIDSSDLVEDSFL
SRSF protein kinase 2 (Homo sapiens), sequence (P78362 whole entry, looked up, the tested form may be a part, canonical isoform): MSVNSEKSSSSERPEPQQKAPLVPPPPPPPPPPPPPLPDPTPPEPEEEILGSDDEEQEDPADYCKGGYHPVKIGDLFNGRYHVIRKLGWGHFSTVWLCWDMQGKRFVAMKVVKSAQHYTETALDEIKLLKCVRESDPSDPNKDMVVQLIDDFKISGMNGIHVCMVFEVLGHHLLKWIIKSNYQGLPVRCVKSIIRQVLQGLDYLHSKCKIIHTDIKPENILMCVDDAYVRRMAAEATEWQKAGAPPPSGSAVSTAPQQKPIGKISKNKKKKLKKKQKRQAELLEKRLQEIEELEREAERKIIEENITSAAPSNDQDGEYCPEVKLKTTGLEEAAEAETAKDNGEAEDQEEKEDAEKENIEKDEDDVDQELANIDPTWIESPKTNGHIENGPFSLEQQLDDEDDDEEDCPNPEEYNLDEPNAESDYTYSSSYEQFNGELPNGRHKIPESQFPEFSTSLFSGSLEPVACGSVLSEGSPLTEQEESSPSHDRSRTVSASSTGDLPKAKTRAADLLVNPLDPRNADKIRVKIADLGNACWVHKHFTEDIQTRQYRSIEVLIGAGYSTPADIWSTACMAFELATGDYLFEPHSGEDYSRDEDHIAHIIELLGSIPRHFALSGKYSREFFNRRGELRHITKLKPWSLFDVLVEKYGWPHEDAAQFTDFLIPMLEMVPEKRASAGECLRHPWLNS

Take `C[C@@H](c1ccccc1)n1nnc2cnc3ccc(-c4cnc5[nH]ccc5c4)cc3c21`: the Activity in experiment [1] worked out at 49%; in [2] it was 86%; in experiment [3] it was 15%; in experiment [4], 26%; in [5] it was 23%; in experiment [6], 72%. The Activity came out at 52% in experiment [7]; 77% in experiment [8]; 4% in experiment [9]; 68% in experiment [10]; 89% in experiment [11]; 11% in experiment [12]. The Activity was 68% in experiment [13]; 43% in experiment [14]; 100% in [15]; 89% in experiment [16]; “Dose-dependent effect” in the experiment on A549; 97% in experiment [17]. The Activity was 4 to 12% in the experiment listed under Mus musculus, 94% in experiment [18] and 2% in experiment [19].
